Read-outs that look alike come from different tables or passages of the source.
Columns and labels:
[1] = tested on: larvae of the green rice cicada (Nephotettix cincticeps); test: whole plant or invertebrate; type: in vivo; conditions: 144 h, read-out: destruction of cicadas
Procedure: (§1) Solvent: 7 parts by weight of dimethylformamide
(§2) Emulsifier: 1 part by weight of alkylaryl polyglycol ether
(§3) To produce a suitable preparation of active compound, 1 part by weight of active compound is mixed with the stated amount of solvent and the stated amount of emulsifier, and the concentrate is diluted with water to the desired concentration.
Rice seedlings (Oryza satira) are treated by being dipped into the preparation of active compound of the desired concentration and are infested with larvae of the green rice cicada (Nephotettix cincticeps) while the seedlings are still moist.
After the specified period of time, the destruction in % is determined. 100% means that all the cicadas have been killed; 0% means that none of the cicadas have been killed.

[2] = tested on: common spider mite or greenhouse red spider mite (Tetranychus urticae); test: Tetranychus test (OP resistant); type: in vivo; conditions: 168 h, read-out: destruction of spider mites
Procedure: Tetranychus test (OP resistant)
as §1, §2, §3
Bean plants (Phaseolus vulgaris) which are heavily infested with all development stages of the common spider mite or greenhouse red spider mite (Tetranychus urticae) are treated by being dipped into the preparation of active compound of the desired concentration.
After the specified period of time, the destruction in % is determined. 100% means that all the spider mites have been killed; 0% means that none of the spider mites have been killed.

Trichinella spiralis = Trichinella spiralis in vitro; conditions: 120 h, 5 days at 19° C., read-out: destruction (very good action)
Procedure: Trichinella spiralis in vitro
Trichina larvae are isolated from the muscles of mice and washed with 0.9% NaCl supplemented with 20 μg/ml sisomycin and 2 μg/ml of clotrimazole. The actual incubation for approximately 20 trichinas per measurement was effected in 2 ml of a solution consisting of 10 g Bacto Casitone, 5 g of yeast (yeast extract), 2.5 g of glucose, 0.4 g of KH2 PO4, 0.4 g of K2 HPO4 per 500 ml, pH 7.2, containing 10 μg/ml of sisomycin and […] of clotrimazole. 10 mg of the substance to be tested are dissolved in 0.5 ml of DMSO, and such an amount is added to the incubation medium that the end concentrations are 100, 10 and 1 μg/ml. After incubation for 5 days at 19° C., the test is evaluated. The following key is used for the evaluation: 0=no action, the number of live larvae and worms is lower than in the case of the control; 2=good action, dead trichinas can be found; 3=very good action, all trichinas are dead.

Digitaria = test: Pre-emergence test, Digitaria; type: in vivo; conditions: 504 h, after three weeks, 0%=no action, 100%=total destruction, read-out: % Activity (damage to the plants)
Procedure: (§4) Solvent: 5 parts by weight of acetone
as §2
(§5) To produce a suitable preparation of active compound, 1 part by weight of active compound is mixed with the stated amount of solvent, the stated amount of emulsifier is added and the concentrate is diluted with water to the desired concentration.
(§6) Seeds of the test plants are sown in normal soil and, after 24 hours, watered with the preparation of the active compound. It is expedient to keep constant the amount of water per unit area. The concentration of the active compound in the preparation is of no importance, only the amount of active compound applied per unit area being decisive. After three weeks, the degree of damage to the plants is rated in % damage in comparison to the development of the untreated control. The figures denote:
(§7) 0%=no action (like untreated control)
(§8) In this test, the following results were obtained at an exemplary application rate of 500 g/ha, the active compounds being tolerated well to very well by soya beans: […]

Echinochloa = test: Pre-emergence test, Echinochloa; type: in vivo; conditions: 504 h, after three weeks, 0%=no action, 100%=total destruction, read-out: % Activity (damage to the plants)
Procedure: as §4, §2, §5, §6, §7, §8

Panicum = test: Pre-emergence test, Panicum; type: in vivo; conditions: 504 h, after three weeks, 0%=no action, 100%=total destruction, read-out: % Activity (damage to the plants)
Procedure: as §4, §2, §5, §6, §7, §8

Setaria = test: Pre-emergence test, Setaria; type: in vivo; conditions: 504 h, after three weeks, 0%=no action, 100%=total destruction, read-out: % Activity (damage to the plants)
Procedure: as §4, §2, §5, §6, §7, §8

[3] = tested on: black bean aphid (Aphis fabae); test: whole plant or invertebrate; type: in vivo; conditions: active compound concentration 0.1%, bean plants watered, systemic action, read-out: destruction of aphids
Procedure: Aphis test (systemic action)
as §1, §2, §3
Bean plants (Vicia faba) which are heavily infested with the black bean aphid (Aphis fabae) are each watered with 20 ml of the preparation of the active compound of the desired concentration in such a way that the preparation of active compound penetrates the soil without wetting the shoot. The active compound is taken up by the roots and translocated to the shoot.
After the specified period of time, the destruction in % is determined. 100% means that all the aphids have been killed; 0% means that none of the aphids have been killed.

[4] = tested on: Lucilia cuprina resistant larvae; test: Test with Lucilia cuprina resistant larvae; type: in vivo; conditions: after 24 hours, read-out: degree of destruction
Procedure: Test with Lucilia cuprina resistant larvae
Emulsifier: 35 parts by weight of ethylene glycolmonomethyl ether 35 parts by weight of nonylphenol polyglycol ether
To produce a suitable preparation of active compound, three parts by weight of active compound are mixed with seven parts by weight of the abovementioned mixture and the concentrate thus obtained is diluted with water to the particular desired concentration.
About 20 Lucilia cuprina res. larvae are introduced into a test tube which contains approx. 1 cm^3 of horse meat and 0.5 ml of the preparation of active compound. After 24 hours, the degree of destruction is determined.

[5] = tested on: mustard beetle larvae (Phaedon cochleariae); test: Phaedon larvae test; type: in vivo; conditions: 168 h, after 7 days, active compound concentration 0.1%, cabbage leaves dipped, read-out: destruction of beetle larvae
Procedure: as §1, §2, §3
After the specified periods of time, the destruction in % is determined. 100% means that all the beetle larvae have been killed; 0% means that none of the beetle larvae have been killed.

[6] = tested on: caterpillars of the diamond-back moth (Plutella maculipennis); test: whole plant or invertebrate; type: in vivo; conditions: in Brassica oleracea, 168 h, read-out: destruction of caterpillars
Procedure: as §1, §2, §3
Cabbage leaves (Brassica oleracea) are treated by being dipped into the preparation of active compound of the desired concentration and are infested with caterpillars of the diamond-back moth (Plutella maculipennis) while the leaves are still moist.
After the specified periods of time, the destruction in % is determined. 100% means that all the caterpillars have been killed; 0% means that none of the caterpillars have been killed.

Structure (SMILES): CCOC(=O)Oc1cc(C(C)(C)C)oc(=O)c1-c1c(C)cc(C)cc1C [Example 3, 4-ethoxycarbonyloxy-6-tert.-butyl-3-(2,4,6-trimethylphenyl)pyrone]
- mortality at 0.1 % [1]: 100%
- mortality at 0.01 % [2]: 100%

Structure (SMILES): Cc1cc(C)c(-c2c(O)c(C#N)c(-c3ccccc3Cl)oc2=O)c(C)c1 [Example 13]
- killing at 100 ppm (Trichinella spiralis): 100%

Structure (SMILES): CCOC(=O)c1c(-c2ccccc2F)oc(=O)c(-c2c(C)cc(C)cc2C)c1O [Example 14]
- killing at 100 ppm (Trichinella spiralis): 100%

Structure (SMILES): CCOC(=O)c1c(-c2ccc([N+](=O)[O-])cc2)oc(=O)c(-c2c(C)cc(C)cc2C)c1O [Example 15]
- killing at 100 ppm (Trichinella spiralis): 100%

Structure (SMILES): Cc1cc(C)c(-c2c(O)c(C(=O)N3CCOCC3)c(C)oc2=O)c(C)c1 [Example 18]
- killing at 100 ppm (Trichinella spiralis): 100%

Structure (SMILES): Cc1cc(C)c(-c2c(O)c(C(=O)c3ccccc3)c(C)oc2=O)c(C)c1 [Example 26]
- killing at 100 ppm (Trichinella spiralis): 100%

Structure (SMILES): Cc1cc(C)c(-c2c(O)cc(C(C)(C)C)oc2=O)c(C)c1 [Example 31]
- mortality at 0.1 % [1]: 100%
- mortality at 0.01 % ([2]; after 7 days, active compound concentration 0.01%, OP resistant, bean plants dipped): 100%
- activity at 500 g/ha (Digitaria): 90 to 100%
- activity at 500 g/ha (Echinochloa): 70 to 100%
- activity at 500 g/ha (Panicum): 95 to 100%
- activity at 500 g/ha (Setaria): 70 to 100%

Structure (SMILES): Cc1cc(C)c(-c2c(O)c(C)c(C)oc2=O)c(C)c1 [Example 32]
- mortality at 0.1 % [1]: 100%
- mortality at 0.1 % [3]: 100%
- activity at 500 g/ha (Digitaria): 90 to 100%
- activity at 500 g/ha (Echinochloa): 70 to 100%
- activity at 500 g/ha (Panicum): 95 to 100%
- activity at 500 g/ha (Setaria): 70 to 100%
- mortality at 1000 ppm [4]: 100%

Structure (SMILES): Cc1cc(C)c(-c2c(O)c(C(C)C)c(C)oc2=O)c(C)c1 [Example 33]
- activity at 500 g/ha (Digitaria): 90 to 100%
- activity at 500 g/ha (Echinochloa): 70 to 100%
- activity at 500 g/ha (Panicum): 95 to 100%
- activity at 500 g/ha (Setaria): 70 to 100%

Structure (SMILES): Cc1cc(C)c(-c2c(O)cc(C)oc2=O)c(C)c1 [Example 34]
- mortality at 0.1 % [1]: 100%
- activity at 500 g/ha (Digitaria): 90 to 100%
- activity at 500 g/ha (Echinochloa): 70 to 100%
- activity at 500 g/ha (Panicum): 95 to 100%
- activity at 500 g/ha (Setaria): 70 to 100%

Structure (SMILES): CCc1c(C)oc(=O)c(-c2c(C)cc(C)cc2C)c1O [Example 35]
- mortality at 0.1 % [1]: 100%
- activity at 500 g/ha (Digitaria): 90 to 100%
- activity at 500 g/ha (Panicum): 95 to 100%
- activity at 500 g/ha (Setaria): 70 to 100%

Structure (SMILES): CCCc1c(CC)oc(=O)c(-c2c(C)cc(C)cc2C)c1O [Example 37]
- mortality at 0.1 % [1]: 100%
- activity at 500 g/ha (Echinochloa): 70 to 100%
- activity at 500 g/ha (Panicum): 95 to 100%
- activity at 500 g/ha (Setaria): 70 to 100%
- killing at 100 ppm (Trichinella spiralis): 100%

Structure (SMILES): Cc1cc(C)c(-c2c(O)cc(-c3ccccc3)oc2=O)c(C)c1 [Example 46]
- mortality at 0.1 % [5]: 100%
- mortality at 0.1 % [6]: 100%
- activity at 500 g/ha (Digitaria): 90 to 100%
- activity at 500 g/ha (Echinochloa): 70 to 100%
- activity at 500 g/ha (Panicum): 95 to 100%
- mortality at 1000 ppm [4]: 100%

Structure (SMILES): Cc1cc(C)c(-c2c(O)cc(-c3ccccc3Cl)oc2=O)c(C)c1 [Example 47]
- mortality at 0.1 % [5]: 100%

Structure (SMILES): Cc1cc(C)c(-c2c(O)cc(-c3ccccc3F)oc2=O)c(C)c1 [Example 51]
- mortality at 0.1 % [1]: 100%
